Values quoted from earlier work as cited in patent US20220323439A1, “URACIL DERMAL PHARMACEUTICAL FORMULATION” (NANOMETICS LLC (D.B.A PHD BIOSCIENCES), priority 2019, published 2022).

Details: oral uracil 500 mg/m^2

O=c1cc[nH]c(=O)[nH]1 [uracil, Uracil]
Cmax of uracil after oral administration: 20000 ng/mL
